In PubChem BioAssay (NCI):
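Each compound was tested at five concentrations against cells in 96-well plates for 48 hours. Definition used: TGI = concentration required for complete inhibition of growth.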

Assays:
Assay in all cases: growth of human tumour cells (NCI), 48 h
[1] = test system: HT29 colon
[2] = test system: OVCAR-4 ovarian
[3] = test system: SK-MEL-28 melanoma
[4] = test system: SF-268 CNS
[5] = test system: SNB-19 CNS
[6] = test system: XF 498 CNS
[7] = test system: SK-OV-3 ovarian
[8] = test system: UO-31 renal
[9] = test system: SR leukemia
[10] = test system: M19-MEL melanoma
[11] = test system: RPMI-8226 leukemia
[12] = test system: SK-MEL-2 melanoma
[13] = test system: UACC-62 melanoma
[14] = test system: HCT-15 colon
[15] = test system: HOP-92 NSCLC
[16] = test system: DLD-1 colon
[17] = test system: TK-10 renal
[18] = test system: SNB-75 CNS
[19] = test system: CCRF-CEM leukemia
[20] = test system: SNB-78 CNS
[21] = test system: HOP-62 NSCLC
[22] = test system: NCI-H23 lung
[23] = test system: MOLT-4 leukemia
[24] = test system: CAKI-1 renal
[25] = test system: HL-60(TB) leukemia
[26] = test system: OVCAR-3 ovarian
[27] = test system: EKVX NSCLC
[28] = test system: UACC-257 melanoma
[29] = test system: COLO 205 colon
[30] = test system: HCC-2998 colon
[31] = test system: NCI-H522 lung
[32] = test system: DMS 273 small cell lung
[33] = test system: SF-539 CNS
[34] = test system: MALME-3M melanoma
[35] = test system: 786-0 renal
[36] = test system: KM20L2 colon
[37] = test system: SK-MEL-5 melanoma
[38] = test system: RXF 393 renal
[39] = test system: SW-620 colon
[40] = test system: U251 CNS
[41] = test system: K-562 leukemia
[42] = test system: LOX IMVI melanoma
[43] = test system: NCI-H226 lung
[44] = test system: M14 melanoma
[45] = test system: IGROV1 ovarian
[46] = test system: A549 NSCLC
[47] = test system: SF-295 CNS
[48] = test system: NCI-H460 lung
[49] = test system: OVCAR-5 ovarian
[50] = test system: HCT-116 colon
[51] = test system: KM12 colon
[52] = test system: OVCAR-8 ovarian
[53] = test system: SN12C renal
[54] = test system: A498 renal
[55] = test system: LXFL 529 NSCLC
[56] = test system: DMS 114 small cell lung
[57] = test system: ACHN renal

**Q.** `O=c1[nH][nH]c(=O)[nH]1` was tested. Which TGI [1] did it give?
**A.** > 100 µM

**Q.** And the TGI [2]?
**A.** > 100 µM

**Q.** What about the TGI [3] of the same compound?
**A.** > 100 µM

**Q.** What about the TGI [4] of the same compound?
**A.** > 100 µM

**Q.** What about the TGI [5] of the same compound?
**A.** > 100 µM

**Q.** And the TGI [6]?
**A.** > 100 µM

**Q.** What about the TGI [7] of the same compound?
**A.** > 100 µM

**Q.** What about the TGI [8] of the same compound?
**A.** > 100 µM

**Q.** And the TGI [9]?
**A.** > 100 µM

**Q.** What about the TGI [10] of the same compound?
**A.** > 100 µM

**Q.** What about the TGI [11] of the same compound?
**A.** > 100 µM

**Q.** What about the TGI [12] of the same compound?
**A.** > 100 µM

**Q.** What about the TGI [13] of the same compound?
**A.** > 100 µM

**Q.** And the TGI [14]?
**A.** > 100 µM

**Q.** What about the TGI [15] of the same compound?
**A.** > 100 µM

**Q.** What about the TGI [16] of the same compound?
**A.** > 100 µM

**Q.** And the TGI [17]?
**A.** > 100 µM

**Q.** What about the TGI [18] of the same compound?
**A.** > 100 µM

**Q.** And the TGI [19]?
**A.** > 100 µM

**Q.** And the TGI [20]?
**A.** > 100 µM

**Q.** And the TGI [21]?
**A.** > 100 µM

**Q.** And the TGI [22]?
**A.** > 100 µM

**Q.** What about the TGI [23] of the same compound?
**A.** > 100 µM

**Q.** And the TGI [24]?
**A.** > 100 µM

**Q.** And the TGI [25]?
**A.** > 100 µM

**Q.** And the TGI [26]?
**A.** > 100 µM

**Q.** And the TGI [27]?
**A.** > 100 µM

**Q.** What about the TGI [28] of the same compound?
**A.** > 100 µM

**Q.** And the TGI [29]?
**A.** > 100 µM

**Q.** What about the TGI [30] of the same compound?
**A.** > 100 µM

**Q.** What about the TGI [31] of the same compound?
**A.** > 100 µM

**Q.** And the TGI [32]?
**A.** > 100 µM

**Q.** What about the TGI [33] of the same compound?
**A.** > 100 µM

**Q.** What about the TGI [34] of the same compound?
**A.** > 100 µM

**Q.** What about the TGI [35] of the same compound?
**A.** > 100 µM

**Q.** And the TGI [36]?
**A.** > 100 µM

**Q.** What about the TGI [37] of the same compound?
**A.** > 100 µM

**Q.** And the TGI [38]?
**A.** > 100 µM

**Q.** What about the TGI [39] of the same compound?
**A.** > 100 µM

**Q.** What about the TGI [40] of the same compound?
**A.** > 100 µM

**Q.** What about the TGI [41] of the same compound?
**A.** > 100 µM

**Q.** What about the TGI [42] of the same compound?
**A.** > 100 µM

**Q.** What about the TGI [43] of the same compound?
**A.** > 100 µM

**Q.** And the TGI [44]?
**A.** > 100 µM

**Q.** And the TGI [45]?
**A.** > 100 µM

**Q.** What about the TGI [46] of the same compound?
**A.** > 100 µM

**Q.** What about the TGI [47] of the same compound?
**A.** > 100 µM

**Q.** What about the TGI [48] of the same compound?
**A.** > 100 µM

**Q.** And the TGI [49]?
**A.** > 100 µM

**Q.** And the TGI [50]?
**A.** > 100 µM

**Q.** And the TGI [51]?
**A.** > 100 µM

**Q.** What does the source list for `Clc1ccccc1C(n1ncc2ccccc21)n1ncc2ccccc21`?
**A.** TGI [1]: > 100 µM; TGI [2]: > 100 µM; TGI [52]: > 100 µM; TGI [3]: > 100 µM; TGI [4]: > 100 µM; TGI [5]: > 100 µM; TGI [6]: > 100 µM; TGI [7]: > 10 µM; TGI [53]: > 100 µM; TGI [8]: 94.4 µM; TGI [9]: > 100 µM; TGI [10]: > 100 µM; TGI [11]: 63.3 µM; TGI [12]: > 100 µM; TGI [13]: > 10 µM; TGI [14]: > 100 µM; TGI [54]: > 100 µM; TGI [15]: > 100 µM; TGI [16]: > 100 µM; TGI [55]: > 100 µM; TGI [17]: > 100 µM; TGI [18]: 65.6 µM; TGI [56]: > 100 µM; TGI [19]: > 100 µM; TGI [20]: > 100 µM; TGI [21]: > 100 µM; TGI [22]: > 100 µM; TGI [23]: > 100 µM; TGI [24]: > 100 µM; TGI [25]: 50.1 µM; TGI [26]: > 100 µM; TGI [28]: > 100 µM; TGI [30]: > 100 µM; TGI [31]: > 100 µM; TGI [32]: > 100 µM; TGI [33]: > 100 µM; TGI [57]: > 100 µM; TGI [34]: > 100 µM; TGI [35]: > 100 µM; TGI [37]: 57.7 µM; TGI [38]: > 100 µM; TGI [39]: > 100 µM; TGI [40]: > 100 µM; TGI [41]: > 100 µM; TGI [42]: > 100 µM; TGI [43]: > 100 µM; TGI [44]: > 100 µM; TGI [45]: > 10 µM; TGI [47]: > 100 µM; TGI [48]: > 100 µM; TGI [49]: > 100 µM; TGI [50]: > 100 µM; TGI [51]: > 100 µM
